ChEMBL document CHEMBL1154659, “Discovery and optimization of chromenotriazolopyrimidines as potent inhibitors of the mouse double minute 2-tumor protein 53 protein-protein interaction” (J Med Chem, 2009)
Calls of active or inactive are those of the source. No cut-off for these calls is given here.

system: SJSA-1; experiment: Induction of apoptosis in human SJSA1 cells assessed as caspase 3/7 activity after 48 hrs; type: functional, cell-based

`COc1ccc(C2=N[C@@H](c3ccc(Cl)cc3)[C@@H](c3ccc(Cl)cc3)N2C(=O)N2CCNC(=O)C2)c(OC(C)C)c1` was tested, and the Activity was “Dose-dependent effect”.
With `Cc1ccc2c(c1)C1=C(C(c3ccc(Br)cc3)O2)C(c2ccc(Br)cc2)n2ncnc2N1C` (single isomer, unassigned) the Activity was “Dose-dependent effect”.

system: HCT-116; experiment: Induction of p21 mRNA in human HCT116 cells by RT-PCR; type: functional, cell-based

In the case of `COc1ccc(C2=N[C@@H](c3ccc(Cl)cc3)[C@@H](c3ccc(Cl)cc3)N2C(=O)N2CCNC(=O)C2)c(OC(C)C)c1`, the Activity is reported as “Dose-dependent effect”.
In the case of `Cc1ccc2c(c1)C1=C(C(c3ccc(Br)cc3)O2)C(c2ccc(Br)cc2)n2ncnc2N1C` (single isomer, unassigned), the Activity is reported as “Dose-dependent effect”.

biological target: Tumour suppressor p53/oncoprotein Mdm2 (Homo sapiens, UniProt Q00987); experiment: Inhibition of human MDM2/P53 interaction by HTRF assay; type: protein assay
Sequence (P04637 whole entry): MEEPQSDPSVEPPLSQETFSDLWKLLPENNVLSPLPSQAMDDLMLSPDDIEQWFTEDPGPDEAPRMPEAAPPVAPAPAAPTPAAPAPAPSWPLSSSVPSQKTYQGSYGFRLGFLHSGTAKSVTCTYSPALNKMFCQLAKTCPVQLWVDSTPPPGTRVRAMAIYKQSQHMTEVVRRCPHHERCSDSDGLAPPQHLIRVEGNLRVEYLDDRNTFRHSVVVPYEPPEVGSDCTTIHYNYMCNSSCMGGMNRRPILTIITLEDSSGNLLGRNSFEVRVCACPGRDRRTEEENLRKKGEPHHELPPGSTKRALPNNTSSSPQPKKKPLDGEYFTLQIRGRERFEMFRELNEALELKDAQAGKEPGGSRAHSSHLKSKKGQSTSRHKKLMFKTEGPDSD
Sequence (Q00987 whole entry): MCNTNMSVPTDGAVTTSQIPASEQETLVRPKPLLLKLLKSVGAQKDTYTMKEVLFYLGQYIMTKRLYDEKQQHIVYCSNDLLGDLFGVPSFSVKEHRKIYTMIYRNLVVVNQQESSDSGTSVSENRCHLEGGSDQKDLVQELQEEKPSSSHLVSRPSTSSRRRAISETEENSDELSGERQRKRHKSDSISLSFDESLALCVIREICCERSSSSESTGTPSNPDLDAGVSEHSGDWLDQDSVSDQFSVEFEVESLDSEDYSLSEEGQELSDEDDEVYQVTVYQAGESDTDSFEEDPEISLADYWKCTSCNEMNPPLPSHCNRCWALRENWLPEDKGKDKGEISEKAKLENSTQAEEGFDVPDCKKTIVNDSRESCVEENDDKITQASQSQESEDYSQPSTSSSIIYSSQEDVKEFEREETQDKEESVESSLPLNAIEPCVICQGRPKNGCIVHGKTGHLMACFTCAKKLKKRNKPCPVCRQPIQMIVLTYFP

Compared with `COc1c(C)ccc2c1C1=C(C(c3ccc(Br)cc3)O2)C(c2ccc(Br)cc2)n2ncnc2N1C` (racemic), `CN1C2=C(C(c3ccc(Br)cc3)Oc3cccc(F)c32)C(c2ccc(Br)cc2)n2ncnc21` (racemic) is 2.3-fold lower in IC50: 3.94 µM for the first, 1.72 µM for the second. The second is the more potent here.

Going from `CN1C2=C(C(c3ccc(Br)cc3)Oc3ccc(Cl)cc32)C(c2ccc(Br)cc2)n2ncnc21` (racemic) to `CN1C2=C(C(c3ccc(Br)cc3)Oc3cc(Cl)ccc32)C(c2ccc(Br)cc2)n2ncnc21` (racemic), the IC50 rises from 1.4 µM to 15.1 µM (11-fold).

Compared with `CN1C2=C(C(c3ccc(Br)cc3)Oc3ccccc32)C(c2ccc(F)cc2)n2ncnc21` (racemic), `CN1C2=C(C(c3ccc(F)cc3)Oc3ccccc32)C(c2ccc(Br)cc2)n2ncnc21` (racemic) is 3.5-fold higher in IC50: 1.88 µM for the first, 6.57 µM for the second.

Compared with `CN1C2=C(C(c3ccc(Br)cc3)Oc3ccc(C#N)cc32)C(c2ccc(Br)cc2)n2ncnc21` (racemic), `CN1C2=C(C(c3ccc(Br)cc3)Oc3ccc(F)cc32)C(c2ccc(Br)cc2)n2ncnc21` (racemic) is 1.8-fold lower in IC50: 3.06 µM for the first, 1.73 µM for the second.

Compared with `CN1C2=C(C(c3ccc(C#N)cc3)Oc3ccccc32)C(c2ccc(Br)cc2)n2ncnc21` (racemic), `CN1C2=C(C(c3ccc(Br)cc3)Oc3ccccc32)C(c2ccc(C#N)cc2)n2ncnc21` (racemic) is 2.8-fold higher in IC50: 2.08 µM for the first, 5.84 µM for the second.

Compared with `CN1C2=C(C(c3ccc(Br)cc3)Oc3cc(F)ccc32)C(c2ccc(Br)cc2)n2ncnc21` (racemic), `Cc1ccc2c(c1)C1=C(C(c3ccc(Br)cc3)O2)C(c2ccc(Br)cc2)n2ncnc2N1C` (racemic) is 2.2-fold lower in IC50: 0.99 µM for the first, 0.44 µM for the second.

First: CN1C2=C(C(c3ccc(Br)cc3)Oc3c(Cl)cccc32)C(c2ccc(Br)cc2)n2ncnc21 (racemic)
Second: CN1C2=C(C(c3ccc(Br)cc3)Oc3c(Cl)cc(Cl)cc32)C(c2ccc(Br)cc2)n2ncnc21 (racemic)
The IC50 of the first is lower: 3.5 µM for the first, over 100 µM for the second. The first is the more potent here.

First: CN1C2=C(C(c3ccc(Cl)cc3)Oc3ccccc32)C(c2ccc(Br)cc2)n2ncnc21 (racemic)
Second: Cc1ccc(C2C3=C(c4ccccc4OC3c3ccc(Br)cc3)N(C)c3ncnn32)cc1 (racemic)
The IC50 of the first is 5.3-fold lower: 0.89 µM for the first, 4.74 µM for the second. The first is the more potent here.

Compared with `CCc1ccc2c(c1)C1=C(C(c3ccc(Br)cc3)O2)C(c2ccc(Br)cc2)n2ncnc2N1C` (racemic), `CCc1ccc(C2Oc3ccccc3C3=C2C(c2ccc(Br)cc2)n2ncnc2N3C)cc1` (racemic) is higher in IC50: 3.2 µM for the first, over 100 µM for the second. The first is the more potent here.

First: CC#Cc1ccc(C2Oc3ccccc3C3=C2C(c2ccc(Br)cc2)n2ncnc2N3C)cc1 (racemic)
Second: C#Cc1ccc(C2Oc3ccccc3C3=C2C(c2ccc(Br)cc2)n2ncnc2N3C)cc1 (racemic)
The IC50 of the first is 3.7-fold higher: 9.07 µM for the first, 2.47 µM for the second. The second is the more potent here.

First: CCOc1cccc2c1C1=C(C(c3ccc(Br)cc3)O2)C(c2ccc(Br)cc2)n2ncnc2N1C (racemic)
Second: Cc1cc2c(cc1F)OC(c1ccc(Br)cc1)C1=C2N(C)c2ncnn2C1c1ccc(Br)cc1 (racemic)
The IC50 of the first is 1.9-fold higher: 0.91 µM for the first, 0.48 µM for the second.

Going from `CN1C2=C(C(c3ccc(F)cc3)Oc3ccccc32)C(c2ccc(F)cc2)n2ncnc21` (racemic) to `Cc1ccc(C2Oc3ccccc3C3=C2C(c2ccc(Br)cc2)n2ncnc2N3C)cc1` (racemic), the IC50 falls from 14.8 µM to 4.63 µM (3.2-fold).

`CN1C2=C(C(c3ccc(Cl)cc3)Oc3ccccc32)C(c2ccc(Cl)cc2)n2ncnc21` (racemic) gave an IC50 of 1.21 µM.

system: HCT-116; experiment: Inhibition of human HCT116 cell proliferation after 16 hrs by BrdU assay; type: functional, cell-based

With `COc1ccc(C2=N[C@@H](c3ccc(Cl)cc3)[C@@H](c3ccc(Cl)cc3)N2C(=O)N2CCNC(=O)C2)c(OC(C)C)c1` the Activity was “Active”.
In the case of `Cc1ccc2c(c1)C1=C(C(c3ccc(Br)cc3)O2)C(c2ccc(Br)cc2)n2ncnc2N1C` (single isomer, unassigned), the Activity is reported as “Active”.

system: HCT-116; experiment: Inhibition of human p21 deficient HCT116 cell proliferation after 16 hrs by BrdU assay; type: functional, cell-based

`COc1ccc(C2=N[C@@H](c3ccc(Cl)cc3)[C@@H](c3ccc(Cl)cc3)N2C(=O)N2CCNC(=O)C2)c(OC(C)C)c1` was tested, and the Activity was “inactive”.
In the case of `Cc1ccc2c(c1)C1=C(C(c3ccc(Br)cc3)O2)C(c2ccc(Br)cc2)n2ncnc2N1C` (single isomer, unassigned), the Activity is reported as “inactive”.

system: HCT-116; experiment: Inhibition of human p53 deficient HCT116 cell proliferation after 16 hrs by BrdU assay; type: functional, cell-based

In the case of `COc1ccc(C2=N[C@@H](c3ccc(Cl)cc3)[C@@H](c3ccc(Cl)cc3)N2C(=O)N2CCNC(=O)C2)c(OC(C)C)c1`, the Activity is reported as “inactive”.
With `Cc1ccc2c(c1)C1=C(C(c3ccc(Br)cc3)O2)C(c2ccc(Br)cc2)n2ncnc2N1C` (single isomer, unassigned) the Activity was “inactive”.
